Converted amounts (≈) assume the structure as drawn. Where a SMILES comes first, the peptide text is derived from it. [ ]: non-standard residue; d: D form.
How the values were obtained:
MDRAB 12035 [1] = type: cell-based, Acinetobacter baumannii
Method: (§1) A synergistic effect of a peptide and antibiotics was evaluated at antibacterial activity against a strain by using an MIC value determined for each mixed solution. For the evaluation, a fractional inhibitory concentration (FIC) value was used (Elion, Gertrude B., Samuel Singer, and George H. Hitchings. Journal of Biological Chemistry 208.2 (1954): 477-488.).
(§2) A method generally used to decide the synergistic effect by using the FIC values is a checkerboard assay, and is a method that selects the lowest FIC index value in a well in which the growth of bacteria is suppressed. However, the selection of one FIC index in the method has a problem in that when the antibacterial activity of the antibiotics is lower, the FIC index is calculated so as to have a big synergistic effect, and is not accurate and has many experimental errors. Thus, with respect to the FIC index calculated by [Equation 1], an average FIC index was again calculated by using the following [Equation 2] (He, Jing, Charles G. Starr, and William C. Wimley. Biochimica et Biophysica Acta (BBA)-Biomembranes 1848.1 (2015): 8-15.).

A. baumannii [2] = type: cell-based, Acinetobacter baumannii
Method: as §1, §2

S. aureus = test: microbe, parasite or virus in culture; type: cell-based, Staphylococcus aureus
How it was run: (§3)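 Each strain is brought to 2×10^6 CFU in nutrient-sufficient Mueller-Hinton medium and dispensed into wells. Peptide solutions, stepwise diluted 2:1 in the same medium, are then added. The minimal concentration preventing growth gives the MIC.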

[3] = system: multi-drug resistant bacteria; test: MIC, summary statements for multi-drug resistant bacteria; type: cell-based
How it was run: as §3

MDREC 1229 [4] = test: MIC of antibiotic during combined treatment with antimicrobial peptide; type: cell-based, Escherichia coli
How it was run: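 Broth microdilution in MH medium; strains were diluted to 2×10^6 CFU per ml before plating. Peptide was serially diluted stepwise at 2:1 starting from its MIC, and MH-diluted antibiotic was then added to determine MIC. The reversed arrangement was also tested.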

A. baumannii [5] = test: as above; type: cell-based, Acinetobacter baumannii; settings: A. baumannii
How it was run: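 First, antibiotic solution is diluted with MH medium; next, the dilution is dispensed into wells containing peptide; finally, the orientation is swapped and MIC of each mixture determined.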

MDREC 1229 [6] = type: cell-based, Escherichia coli
Method: as §1, §2

E. coli = type: cell-based, Escherichia coli
Method: as §1, §2

S. typhimurium = test: microbe, parasite or virus in culture; type: cell-based, Salmonella typhimurium
How it was run: as §3

MDRAB 12035 [7] = test: microbe, parasite or virus in culture; type: cell-based, Acinetobacter baumannii; settings: MDRAB 12035
How it was run: as §3

A. baumannii [8] = test: microbe, parasite or virus in culture; type: cell-based, Acinetobacter baumannii
How it was run: as §3

[9] = peptide combined with erythromycin
[10] = peptide combined with linezolid
[11] = peptide combined with vancomycin
[12] = peptide treatment concentration 1 μg/ml
[13] = peptide treatment concentration 2 μg/ml
[14] = peptide treatment concentration 4 μg/ml
[15] = peptide treatment concentration 6 μg/ml
[16] = peptide treatment concentration 8 μg/ml
[17] = peptide treatment concentration 16 μg/ml
[18] = peptide treatment concentration 32 μg/ml
[19] = peptide treatment concentration 64 μg/ml
[20] = combined with peptide at 1 μg/ml
[21] = combined with peptide at 2 μg/ml
[22] = combined with peptide at 4 μg/ml
[23] = combined with peptide at 6 μg/ml
[24] = combined with peptide at 8 μg/ml
[25] = combined with peptide at 16 μg/ml
[26] = combined with peptide at 32 μg/ml
[27] = combined with peptide at 64 μg/ml

**Q.** `CC[C@H](C)[C@H](NC(=O)[C@H](CCCCN)NC(=O)[C@H](Cc1c[nH]c2ccccc12)NC(=O)[C@@H](N)CCCNC(=N)N)C(=O)N[C@@H](Cc1ccccc1)C(=O)N[C@@H](CCCCN)C(=O)N[C@@H](CCCCN)C(=O)N[C@H](C(=O)N[C@H](CC(C)C)C(=O)N[C@@H](CCCCN)C(=O)N[C@@H](CC(C)C)C(=O)N[C@@H](CC(C)C)C(=O)N[C@@H](Cc1c[nH]cn1)C(=O)N[C@@H](CCCCN)C(=O)N[C@@H](Cc1ccccc1)C(=O)N[C@@H](CCCCN)C(=O)N[C@@H](CCCCN)C(=O)N[C@@H](Cc1ccccc1)C(N)=O)[C@@H](C)CC` [PapMA-21, RWK IFK KIl KLL HKF KKF-NH2] (H-RWKIFKKI[dL]KLLHKFKKF-NH2; N-terminus assumed) was tested. Which “Average FIC index, Erythromycin” value (MDRAB 12035 [1]; [9]) did it give?
**A.** 0.49

**Q.** What about the “Average FIC index, Linezolid” value (MDRAB 12035 [1]; [10]) of the same molecule?
**A.** 0.22

**Q.** And the “Average FIC index, Vancomycin” value (MDRAB 12035 [1]; [11])?
**A.** 0.17

**Q.** What about the “Average FIC index, Erythromycin” value (A. baumannii [2]; [9]) of the same molecule?
**A.** 0.40

**Q.** What about the “Average FIC index, Linezolid” value (A. baumannii [2]; [10]) of the same molecule?
**A.** 0.35

**Q.** And the “Average FIC index, Vancomycin” value (A. baumannii [2]; [11])?
**A.** 0.11

**Q.** What about the “Minimal inhibitory concentration MIC” value (S. aureus) of the same molecule?
**A.** >128 µg/mL

**Q.** What about the “Antibacterial activity relative to PapMA-1” value [3] of the same molecule?
**A.** twice to four times higher

**Q.** What about the “Antibiotic MIC, Erythromycin” value (MDREC 1229 [4]; [12]) of the same molecule?
**A.** 128 µg/mL

**Q.** What about the “Antibiotic MIC, Linezolid” value (MDREC 1229 [4]; [12]) of the same molecule?
**A.** >128 µg/mL

**Q.** And the “Antibiotic MIC, Vancomycin” value (MDREC 1229 [4]; [12])?
**A.** >128 µg/mL

**Q.** And the “Antibiotic MIC, Erythromycin” value (MDREC 1229 [4]; [13])?
**A.** 64 µg/mL

**Q.** And the “Antibiotic MIC, Linezolid” value (MDREC 1229 [4]; [13])?
**A.** >128 µg/mL

**Q.** And the “Antibiotic MIC, Vancomycin” value (MDREC 1229 [4]; [13])?
**A.** >128 µg/mL

**Q.** And the “Antibiotic MIC, Erythromycin” value (MDREC 1229 [4]; [14])?
**A.** 32 µg/mL

**Q.** And the “Antibiotic MIC, Linezolid” value (MDREC 1229 [4]; [14])?
**A.** 128 µg/mL

**Q.** And the “Antibiotic MIC, Vancomycin” value (MDREC 1229 [4]; [14])?
**A.** >128 µg/mL

**Q.** What about the “Antibiotic MIC, Erythromycin” value (MDREC 1229 [4]; [15]) of the same molecule?
**A.** 8 µg/mL

**Q.** What about the “Antibiotic MIC, Linezolid” value (MDREC 1229 [4]; [15]) of the same molecule?
**A.** 64 µg/mL

**Q.** And the “Antibiotic MIC, Vancomycin” value (MDREC 1229 [4]; [15])?
**A.** >128 µg/mL

**Q.** And the “Antibiotic MIC, Erythromycin” value (MDREC 1229 [4]; [16])?
**A.** 4 µg/mL

**Q.** What about the “Antibiotic MIC, Linezolid” value (MDREC 1229 [4]; [16]) of the same molecule?
**A.** 32 µg/mL

**Q.** And the “Antibiotic MIC, Vancomycin” value (MDREC 1229 [4]; [16])?
**A.** 128 µg/mL

**Q.** And the “Antibiotic MIC, Erythromycin” value (MDREC 1229 [4]; [17])?
**A.** 2 µg/mL

**Q.** And the “Antibiotic MIC, Linezolid” value (MDREC 1229 [4]; [17])?
**A.** 16 µg/mL

**Q.** What about the “Antibiotic MIC, Vancomycin” value (MDREC 1229 [4]; [17]) of the same molecule?
**A.** 16 µg/mL

**Q.** And the “Antibiotic MIC, Erythromycin” value (MDREC 1229 [4]; [18])?
**A.** 0 µg/mL

**Q.** What about the “Antibiotic MIC, Linezolid” value (MDREC 1229 [4]; [18]) of the same molecule?
**A.** 0 µg/mL

**Q.** What about the “Antibiotic MIC, Vancomycin” value (MDREC 1229 [4]; [18]) of the same molecule?
**A.** 0 µg/mL

**Q.** And the “Antibiotic MIC, Erythromycin” value (MDREC 1229 [4]; [19])?
**A.** 0 µg/mL

**Q.** And the “Antibiotic MIC, Linezolid” value (MDREC 1229 [4]; [19])?
**A.** 0 µg/mL

**Q.** And the “Antibiotic MIC, Vancomycin” value (MDREC 1229 [4]; [19])?
**A.** 0 µg/mL

**Q.** And the “Antibiotic MIC, Erythromycin” value (A. baumannii [5]; [20])?
**A.** 32 µg/mL

**Q.** What about the “Antibiotic MIC, Linezolid” value (A. baumannii [5]; [20]) of the same molecule?
**A.** >128 µg/mL

**Q.** What about the “Antibiotic MIC, Vancomycin” value (A. baumannii [5]; [20]) of the same molecule?
**A.** >128 µg/mL

**Q.** And the “Antibiotic MIC, Erythromycin” value (A. baumannii [5]; [21])?
**A.** 32 µg/mL

**Q.** What about the “Antibiotic MIC, Linezolid” value (A. baumannii [5]; [21]) of the same molecule?
**A.** >128 µg/mL

**Q.** And the “Antibiotic MIC, Vancomycin” value (A. baumannii [5]; [21])?
**A.** >128 µg/mL

**Q.** What about the “Antibiotic MIC, Erythromycin” value (A. baumannii [5]; [22]) of the same molecule?
**A.** 8 µg/mL

**Q.** And the “Antibiotic MIC, Linezolid” value (A. baumannii [5]; [22])?
**A.** 32 µg/mL

**Q.** What about the “Antibiotic MIC, Vancomycin” value (A. baumannii [5]; [22]) of the same molecule?
**A.** 64 µg/mL

**Q.** And the “Antibiotic MIC, Erythromycin” value (A. baumannii [5]; [23])?
**A.** 2 µg/mL

**Q.** And the “Antibiotic MIC, Linezolid” value (A. baumannii [5]; [23])?
**A.** 16 µg/mL

**Q.** And the “Antibiotic MIC, Vancomycin” value (A. baumannii [5]; [23])?
**A.** 32 µg/mL

**Q.** And the “Antibiotic MIC, Erythromycin” value (A. baumannii [5]; [24])?
**A.** 1 µg/mL

**Q.** What about the “Antibiotic MIC, Linezolid” value (A. baumannii [5]; [24]) of the same molecule?
**A.** 16 µg/mL

**Q.** What about the “Antibiotic MIC, Vancomycin” value (A. baumannii [5]; [24]) of the same molecule?
**A.** 16 µg/mL

**Q.** What about the “Antibiotic MIC, Erythromycin” value (A. baumannii [5]; [25]) of the same molecule?
**A.** 0.25 µg/mL

**Q.** What about the “Antibiotic MIC, Linezolid” value (A. baumannii [5]; [25]) of the same molecule?
**A.** 2 µg/mL

**Q.** And the “Antibiotic MIC, Vancomycin” value (A. baumannii [5]; [25])?
**A.** 8 µg/mL

**Q.** What about the “Antibiotic MIC, Erythromycin” value (A. baumannii [5]; [26]) of the same molecule?
**A.** 0 µg/mL

**Q.** And the “Antibiotic MIC, Linezolid” value (A. baumannii [5]; [26])?
**A.** 0 µg/mL

**Q.** What about the “Antibiotic MIC, Vancomycin” value (A. baumannii [5]; [26]) of the same molecule?
**A.** 0 µg/mL

**Q.** What about the “Antibiotic MIC, Erythromycin” value (A. baumannii [5]; [27]) of the same molecule?
**A.** 0 µg/mL

**Q.** What about the “Antibiotic MIC, Linezolid” value (A. baumannii [5]; [27]) of the same molecule?
**A.** 0 µg/mL

**Q.** And the “Antibiotic MIC, Vancomycin” value (A. baumannii [5]; [27])?
**A.** 0 µg/mL

**Q.** And the “Average FIC index, Erythromycin” value (MDREC 1229 [6]; [9])?
**A.** 0.15

**Q.** What about the “Average FIC index, Linezolid” value (MDREC 1229 [6]; [10]) of the same molecule?
**A.** 0.28

**Q.** What about the “Average FIC index, Vancomycin” value (MDREC 1229 [6]; [11]) of the same molecule?
**A.** 0.26

**Q.** And the “Average FIC index, Erythromycin” value (E. coli; [9])?
**A.** 0.15

**Q.** What about the “Average FIC index, Linezolid” value (E. coli; [10]) of the same molecule?
**A.** 0.35

**Q.** What about the “Average FIC index, Vancomycin” value (E. coli; [11]) of the same molecule?
**A.** 0.21

**Q.** And the “Minimal inhibitory concentration MIC” value (S. typhimurium)?
**A.** 32 µg/mL (≈ 13.3 µM)

**Q.** What about the “Minimal inhibitory concentration MIC” value (MDRAB 12035 [7]; agent alone) of the same molecule?
**A.** 32 µg/mL (≈ 13.3 µM)

**Q.** What about the “Peptide MIC, peptide alone” value (MDRAB 12035 [7]; no antibiotic) of the same molecule?
**A.** 32 µg/mL

**Q.** What about the “Minimal inhibitory concentration MIC” value (A. baumannii [8]) of the same molecule?
**A.** 32 µg/mL (≈ 13.3 µM)

**Q.** And the “Peptide MIC, peptide alone” value (A. baumannii [8])?
**A.** 32 µg/mL

**Q.** What about the “Antibacterial activity relative to PapMA-1” value (A. baumannii [8]; A. baumannii and S. typhimurium) of the same molecule?
**A.** at least twice as high

From patent US11214594B2, “Antimicrobial peptide having synergistic antibacterial effect with antibiotics on multidrug resistant bacteria, and use thereof” (priority 2016, dated 2022)
